# Results from ChEMBL document CHEMBL1201862, “PubChem BioAssay data set” (2004).
# Several values for one entry are separate records, joined by “and”; a condition that tells them apart may be missing. Identical values can stand only once. Activity calls are given as the source filed them.
# Legend:
# Cytochrome P450 3A4 = Cytochrome P450 3A4 (Homo sapiens, UniProt P08684);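 also: CYP3A4 tested as one member of a cytochrome P450 panel screen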
# Cytochrome P450 2C9 = Cytochrome P450 2C9 (Homo sapiens, UniProt P11712)
# Cytochrome P450 2C19 = Cytochrome P450 2C19 (Homo sapiens, UniProt P33261); test: Cytochrome panel assay with activity outcomes. Panel member name: p450-cyp2c19 Compounds with AC50 equal or less than 10 uM are considered active; assay type: functional
# Streptokinase A = molecular target: T1, Streptokinase A (Streptococcus pyogenes serotype M1, UniProt P10520); test: S. pyogenes streptokinase expression inhibitors, potency, dose response, plasminogen activation absorbance, OD405 (AID 1914); assay type: functional, Streptococcus pyogenes M1 GAS;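 also: secreted streptokinase activity via plasminogen activation per viability signal from cell pellet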
# T1 sequence (P10520 whole entry): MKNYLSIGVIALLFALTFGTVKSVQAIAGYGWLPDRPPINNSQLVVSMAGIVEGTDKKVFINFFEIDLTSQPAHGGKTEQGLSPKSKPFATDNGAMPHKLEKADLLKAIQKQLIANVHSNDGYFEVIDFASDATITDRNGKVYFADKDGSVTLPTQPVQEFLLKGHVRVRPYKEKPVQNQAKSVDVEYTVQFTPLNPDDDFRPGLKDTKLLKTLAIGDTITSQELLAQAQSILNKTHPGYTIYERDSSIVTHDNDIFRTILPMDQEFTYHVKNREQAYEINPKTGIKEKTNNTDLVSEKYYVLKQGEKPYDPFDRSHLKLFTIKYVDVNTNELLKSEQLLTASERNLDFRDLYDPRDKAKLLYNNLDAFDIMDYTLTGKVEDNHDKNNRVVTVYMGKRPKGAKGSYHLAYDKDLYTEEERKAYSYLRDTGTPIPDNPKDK
# Streptococcus = test: Group A Streptococcus viability loss, dose response, counter-screen for streptokinase expression inhibitor project, luminescence, BacTiterGlo (AID 1915); assay type: functional, organism-based;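 also: potency for reduction of bacterial viability or growth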
# [1] = system: Streptococcus sp. 'group A'; test: growth inhibition of control SK(-) GAS strain, dose response, counter-screen for streptokinase expression inhibitor project, luminescence, kanamycin, BacTiterGlo, confirmation (AID 1900); assay type: functional, organism-based
# Cytochrome P450 1A2 = molecular target: T2, Cytochrome P450 1A2 (Homo sapiens, UniProt P05177);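 also: PubChem cytochrome P450 panel assay, CYP1A2 panel member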
# T2 sequence (P05177 whole entry): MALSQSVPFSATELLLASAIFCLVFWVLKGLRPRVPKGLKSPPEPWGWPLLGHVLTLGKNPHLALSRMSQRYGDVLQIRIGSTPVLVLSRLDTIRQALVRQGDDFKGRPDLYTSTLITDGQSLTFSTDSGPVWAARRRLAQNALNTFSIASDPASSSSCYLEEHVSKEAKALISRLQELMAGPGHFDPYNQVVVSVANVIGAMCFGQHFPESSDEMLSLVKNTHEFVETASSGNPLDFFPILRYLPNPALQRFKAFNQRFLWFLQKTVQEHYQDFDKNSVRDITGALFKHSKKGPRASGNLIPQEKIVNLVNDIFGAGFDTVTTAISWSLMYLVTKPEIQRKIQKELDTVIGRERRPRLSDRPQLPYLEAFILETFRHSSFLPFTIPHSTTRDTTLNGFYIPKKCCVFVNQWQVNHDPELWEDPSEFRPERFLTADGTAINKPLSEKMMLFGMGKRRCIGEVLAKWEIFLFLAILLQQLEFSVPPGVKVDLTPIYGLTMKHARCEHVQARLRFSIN
# [2] = molecular target: T3, Rac GTPase-activating protein 1 (Homo sapiens, UniProt Q9H0H5); test: MgcRacGAP GTPase-activating activity inhibitors, confirmation, biochemical, ADP Hunter fluorescence, primary and confirmatory (AID 624330); assay type: functional
# T3 sequence (Q9H0H5 whole entry): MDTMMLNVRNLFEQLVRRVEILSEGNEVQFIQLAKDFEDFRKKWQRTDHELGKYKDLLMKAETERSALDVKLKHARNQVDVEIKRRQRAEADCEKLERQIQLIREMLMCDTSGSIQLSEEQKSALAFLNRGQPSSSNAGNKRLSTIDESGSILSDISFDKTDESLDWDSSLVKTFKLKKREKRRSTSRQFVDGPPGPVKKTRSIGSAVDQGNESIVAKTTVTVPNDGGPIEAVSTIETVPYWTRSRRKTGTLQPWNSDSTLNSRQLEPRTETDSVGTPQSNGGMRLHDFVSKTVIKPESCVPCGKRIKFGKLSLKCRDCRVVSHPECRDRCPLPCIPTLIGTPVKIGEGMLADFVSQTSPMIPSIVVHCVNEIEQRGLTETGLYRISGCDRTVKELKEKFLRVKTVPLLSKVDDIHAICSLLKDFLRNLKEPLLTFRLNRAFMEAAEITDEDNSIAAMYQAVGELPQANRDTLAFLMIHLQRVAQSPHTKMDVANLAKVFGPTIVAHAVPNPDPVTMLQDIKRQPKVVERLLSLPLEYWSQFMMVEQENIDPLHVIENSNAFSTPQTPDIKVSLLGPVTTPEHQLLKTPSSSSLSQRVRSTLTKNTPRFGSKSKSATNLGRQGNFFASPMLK
# Chain of Cytochrome P450 2C19 (P33261 whole entry): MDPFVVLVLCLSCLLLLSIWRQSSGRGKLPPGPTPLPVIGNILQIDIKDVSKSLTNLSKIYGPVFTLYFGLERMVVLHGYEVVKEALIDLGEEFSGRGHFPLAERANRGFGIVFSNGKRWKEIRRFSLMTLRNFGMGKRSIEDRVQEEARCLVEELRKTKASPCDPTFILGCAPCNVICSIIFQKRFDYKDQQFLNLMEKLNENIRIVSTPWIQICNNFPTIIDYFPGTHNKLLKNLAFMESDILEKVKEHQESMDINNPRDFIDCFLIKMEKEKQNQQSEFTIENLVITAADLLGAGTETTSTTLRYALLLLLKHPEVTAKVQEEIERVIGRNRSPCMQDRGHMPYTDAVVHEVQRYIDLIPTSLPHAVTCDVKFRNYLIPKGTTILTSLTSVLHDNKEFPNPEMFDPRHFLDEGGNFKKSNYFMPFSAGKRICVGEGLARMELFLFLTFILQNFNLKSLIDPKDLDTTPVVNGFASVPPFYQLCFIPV
# Chain of Cytochrome P450 3A4 (P08684 whole entry): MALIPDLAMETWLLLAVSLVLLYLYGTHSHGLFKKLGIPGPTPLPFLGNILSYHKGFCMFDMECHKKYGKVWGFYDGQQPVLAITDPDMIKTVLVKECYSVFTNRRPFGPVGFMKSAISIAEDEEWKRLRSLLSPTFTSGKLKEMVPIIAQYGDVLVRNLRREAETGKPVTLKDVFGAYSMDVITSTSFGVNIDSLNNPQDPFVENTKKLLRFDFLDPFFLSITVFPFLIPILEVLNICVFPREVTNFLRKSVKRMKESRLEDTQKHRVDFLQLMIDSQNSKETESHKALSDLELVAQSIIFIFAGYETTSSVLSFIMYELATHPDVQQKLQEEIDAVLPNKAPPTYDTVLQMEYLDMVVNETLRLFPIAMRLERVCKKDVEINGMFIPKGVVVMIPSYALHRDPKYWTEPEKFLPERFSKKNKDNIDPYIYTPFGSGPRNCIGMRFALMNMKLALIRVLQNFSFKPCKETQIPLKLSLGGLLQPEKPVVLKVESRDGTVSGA
# Chain of Cytochrome P450 2C9 (P11712 whole entry): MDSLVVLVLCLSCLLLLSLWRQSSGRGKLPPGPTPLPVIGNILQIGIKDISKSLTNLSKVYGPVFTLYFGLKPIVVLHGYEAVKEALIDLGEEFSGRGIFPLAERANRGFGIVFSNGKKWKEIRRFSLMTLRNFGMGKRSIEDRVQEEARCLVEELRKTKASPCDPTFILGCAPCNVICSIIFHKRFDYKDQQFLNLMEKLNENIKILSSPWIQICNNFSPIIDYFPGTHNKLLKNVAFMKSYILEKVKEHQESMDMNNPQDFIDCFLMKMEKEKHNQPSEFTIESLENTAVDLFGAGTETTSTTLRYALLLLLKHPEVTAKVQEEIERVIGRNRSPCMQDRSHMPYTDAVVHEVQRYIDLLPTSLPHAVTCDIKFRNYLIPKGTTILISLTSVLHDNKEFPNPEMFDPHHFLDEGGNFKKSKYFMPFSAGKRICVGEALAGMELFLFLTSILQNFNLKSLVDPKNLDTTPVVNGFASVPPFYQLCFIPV
structure (smiles),measurement,setting,value
CCCCc1ccc(-c2nc(NC(=O)C3C4CCC(O4)C3C(=O)O)sc2C)cc1 (configuration not stated),AC50,Cytochrome P450 3A4,14.1 µM (inconclusive)
same,AC50,Cytochrome P450 2C9,3.55 µM (inconclusive)
CN(C)/C(CN1CCOCC1)=C1\N=C(c2ccccc2)OC1=O,AC50,Cytochrome P450 2C19; read-out: AC50,7.94 µM (inconclusive)
CCOC(=O)c1c(CN(C)C)n(-c2ccc(C)cc2)c2cc(Br)c(O)cc12,EC50,Streptokinase A,21.9 µM (active)
same,EC50,Streptococcus,> 150 µM (not active)
same,EC50,[1],8.71 µM (active)
COc1ccc(CNC(=O)c2cnc(C)cn2)cc1,AC50,Cytochrome P450 1A2,12.6 µM (inconclusive)
C[C@@H](C(=O)NCc1ccc(S(C)(=O)=O)cc1)[C@@H]1C[C@@]1(C)[C@@H](NC(=O)OCc1ccccc1)c1ccccc1,AC50,Cytochrome P450 1A2,15.8 µM (inconclusive)
CCC(C(=O)NCCCN1CCCC1=O)n1c2ccccc2c2nc(=O)cc(C)n21 (configuration not stated),EC50,Streptokinase A,> 150 µM (not active)
same,EC50,Streptococcus,> 150 µM (not active)
same,EC50,[1],> 150 µM (not active)
COc1ccccc1COCC(O)CNCC1(N2CCCCC2)CCCCC1 (configuration not stated),IC50,[2],121 µM (active)
Cc1ccc(Nc2nnc(S)s2)cc1F,IC50,[2],54.5 µM (active)
O=C(CSc1nnc(CNC(=O)c2ccc(F)cc2)o1)NCc1ccccc1Cl,EC50,Streptokinase A,> 150 µM (not active)
same,EC50,Streptococcus,> 150 µM (not active)
same,EC50,[1],> 150 µM (not active)
COc1cccc(C(C#N)N2N=C(C)CC2(C)C)c1O (configuration not stated),AC50,Cytochrome P450 2C19; read-out: AC50,2.24 µM (inconclusive)
COC(=O)c1ccc(C(=O)OC)c(NC(=O)CSCc2ccc(Br)cc2)c1,AC50,Cytochrome P450 2C19; read-out: AC50,2.24 µM (inconclusive)
CC(C)(C)OC(=O)N1CCCC1C(=O)NCCc1ccccc1 (configuration not stated),AC50,Cytochrome P450 3A4,25.1 µM (inconclusive)
CCOc1ccc2c(c1)C(C)=CC(C)(C)N2 [E324],AC50,Cytochrome P450 3A4,12.6 µM (inconclusive)
CCOC(=O)CC(NC(=O)c1ccco1)c1ccc(OC)cc1 (configuration not stated),AC50,Cytochrome P450 2C9,15.8 µM (inconclusive)
same,AC50,Cytochrome P450 1A2,25.1 µM (inconclusive)
O=C(Nc1ccc(Br)cc1C(=O)O)c1ccc2c(c1)C(=O)N(Cc1ccccc1)C2=O,EC50,Streptokinase A,17.5 µM (inconclusive)
same,EC50,Streptococcus,18.3 µM (active)
same,EC50,[1],0.589 µM (active)
CNC[C@@H](SC)c1ccc(O)c(O)c1,AC50,Cytochrome P450 1A2,6.31 µM (inconclusive)
Cc1nc(NS(=O)(=O)c2ccc(Cl)s2)c2c3c(sc2n1)CCCC3,EC50,Streptokinase A,21.5 µM (inconclusive)
same,EC50,Streptococcus,14.9 µM (active)
same,EC50,[1],4.37 µM (active)
COc1cc(CN2CCN(c3ccccc3F)CC2)cc(OC)c1O,IC50,[2],143 µM (active)
CCCC1(C(=O)OC)C=C2C(=C(C)C(=O)C2C)CN1 (configuration not stated),AC50,Cytochrome P450 3A4,39.8 µM (inconclusive)
CC(C)CN1CCCC2(CCN(C(=O)c3csnn3)CC2)C1,AC50,Cytochrome P450 3A4,31.6 µM (inconclusive)
N#Cc1cccc(NC(=O)N2CCCC3(CCN(C(=O)c4ccco4)CC3)C2)c1,AC50,Cytochrome P450 1A2,15.8 µM (inconclusive)
O=C(CSCc1ccc(Cl)cc1)Nc1nccs1,AC50,Cytochrome P450 3A4,3.55 µM (inconclusive)
same,AC50,Cytochrome P450 2C9,14.1 µM (inconclusive)
O=C(Nc1ccc(F)cc1F)c1cccn1-c1ncc(C(F)(F)F)cc1Cl,AC50,Cytochrome P450 3A4,28.2 µM (inconclusive)
same,AC50,Cytochrome P450 2C9,39.8 µM (inconclusive)
same,AC50,Cytochrome P450 1A2,14.1 µM (inconclusive)
O=C(O)c1c2c(nc3ccccc13)/C(=C/c1ccc(O)cc1)CCC2,IC50,[2],46.6 µM (active)
CC(C)(C)C(=O)NC(c1ccc(Cl)cc1)[C@]1(C)C[C@H]1C1CCCCC1 (some centres not stated),AC50,Cytochrome P450 2C19; read-out: AC50,7.94 µM (inconclusive)
Cc1c(C(=O)O)oc2ccc(S(=O)(=O)NCc3ccc4c(c3)OCO4)cc12,AC50,Cytochrome P450 2C9,3.55 µM (inconclusive)
same,AC50,Cytochrome P450 1A2,14.1 µM (inconclusive)
CN(Cc1ccccc1)Cn1ccnc1,AC50,Cytochrome P450 3A4,3.98 µM (inconclusive)
COc1cc2c(cc1OC)[C@@]13CCN4C=C5CCO[C@H]6CC(=O)N2[C@@H]1[C@@H]6[C@H]5C[C@H]43,AC50,Cytochrome P450 1A2,5.01 µM (inconclusive)
Cn1c(C(=O)N2CCN(c3ccc([N+](=O)[O-])cc3)CC2)cc2c(O)nc3ccccc3c21,EC50,Streptokinase A,> 150 µM (not active)
same,EC50,Streptococcus,> 150 µM (not active)
same,EC50,[1],5.33 µM (active)
O=c1c([N+](=O)[O-])cccn1Cc1ccc(F)cc1Cl,EC50,Streptokinase A,> 150 µM (not active)
same,EC50,Streptococcus,7.88 µM (active)
same,EC50,[1],3.27 µM (active)
COc1cccc(Cn2c(=O)c(CCc3ccccc3)nc3cnc(OC)nc32)c1,AC50,Cytochrome P450 1A2,12.6 µM (inconclusive)
Cc1ccc2c(c1)/C(=N/OC(=O)c1ccc(F)cc1)CCS2,AC50,Cytochrome P450 1A2,0.501 µM (inconclusive)
CCOc1ccc(NC(=S)NC(=O)/C=C/c2ccc(OC)c(OC)c2)c([N+](=O)[O-])c1,AC50,Cytochrome P450 2C9,14.1 µM (inconclusive)
same,AC50,Cytochrome P450 1A2,15.8 µM (inconclusive)
C/C(=C(/CCO)SSC[C@@H]1CCCO1)N(C=O)Cc1cnc(C)nc1N,AC50,Cytochrome P450 3A4,10 µM (inconclusive)
Cc1sc2ncnc(Nc3ccc(O)cc3)c2c1C,IC50,[2],39.4 µM (active)
Cc1ccccc1NC1=C(C(=O)c2ccccc2)N(C)S(=O)(=O)c2ccccc21,AC50,Cytochrome P450 3A4,3.16 µM (inconclusive)
Cc1ccccc1CN1CCCN(Cc2ccc(Cl)cc2)S1(=O)=O,EC50,Streptokinase A,23.3 µM (active)
same,EC50,Streptococcus,> 150 µM (not active)
same,EC50,[1],10.1 µM (active)
COc1ccc(NC(=O)Cn2nnc(C(=O)NCc3cccs3)c2N)cc1Cl,EC50,Streptokinase A,> 150 µM (not active)
same,EC50,Streptococcus,> 150 µM (not active)
same,EC50,[1],67.2 µM (active)
C[C@@H](COc1ccccc1)N(CCCl)Cc1ccccc1,AC50,Cytochrome P450 2C9,31.6 µM (inconclusive) and 12.6 µM (inconclusive)
same,AC50,Cytochrome P450 1A2,12.6 µM (inconclusive)
Cc1ccc(S(=O)(=O)N2CCC(C(=O)O)(c3ccccc3)CC2)cc1,AC50,Cytochrome P450 2C19,inconclusive
c1ccc(-c2nnc3n2NC(c2ccc4c(c2)OCO4)S3)cc1 (configuration not stated),IC50,[2],153 µM (active)
COc1cccc([C@H](O)Cn2cc(-c3cccc(CON=C(C)C)c3)nn2)c1,AC50,Cytochrome P450 3A4,3.98 µM (inconclusive)
O=[N+]([O-])c1cccc(/C=N/Nc2cc(Cl)nc(-c3ccccc3)n2)c1,AC50,Cytochrome P450 3A4,17.8 µM (inconclusive)
CCOc1cc(CNc2ccc(N3CCOCC3)cc2)cc(Br)c1OCC,IC50,[2],19.6 µM (active)
O=C(c1ccccc1)c1ccc2n1CC[C@H]2C(=O)O,AC50,Cytochrome P450 1A2,25.1 µM (inconclusive) and 15.8 µM (inconclusive)
O=C(c1cccc(Cl)c1)N1CCN(C2CCCCC2)CC1,IC50,[2],300 µM (active)
